This assay deals with T1, γ-secretase (Homo sapiens, UniProt P49768).
T1 construct: uses a HEK293 membrane fraction as a source of γ-secretase; endogenous in cells; host or cells: HEK293 (microsomal membrane fraction, solubilised in 0.25% CHAPSO)
As to the kind of experiment: in vitro assay of γ-secretase activity (HEK293 membrane fraction, recombinant APP substrate, Abeta ELISA). Format: biochemical. To be noted: γ-secretase inhibition; HEK293 membrane fraction solubilized in 0.25% CHAPSO, recombinant human APP C-terminal 100 amino acids substrate, Abeta detected by ELISA. From the text:
Description of 1γ-Secretase Assay The activity of test compounds can be evaluated in assays which measure the proteolytic cleavage of suitable substrates by γ-secretase activity. These can be cellular assays where e.g., a substrate of the γ-secretase is fused in its cytoplasmic domain to a transcription factor. Cells are transfected with this fusion gene and a reporter gene, e.g., firefly luciferase, which expression is enhanced by the transcription factor. Cleavage of the fused substrate by γ-secretase will lead to expression of the reporter gene which can be monitored in appropriate assays. The γ-secretase activity can also be determined in cell-free in vitro assays where e.g., a cell lysate containing the γ-secretase complex is incubated with a suitable APP-derived substrate which is cleaved to the Abeta peptides. The amount of produced peptides can be determined with specific ELISA assays. Cell lines of neuronal origin secrete Abeta peptides which can be measured with the specific ELISA assay. Treatment with compounds which inhibit γ-secretase leads to a reduction of secreted Abeta thus providing a measure of inhibition. The in vitro assay of γ-secretase activity uses a HEK293 membrane fraction as a source of γ-secretase and a recombinant APP substrate. Latter consist of the C-terminal 100 amino acids of human APP fused to a 6× Histidin tail for purification which is expressed in E. coli in a regulatable expression vector, e.g. pEt15. This recombinant protein corresponds to the truncated APP fragment which results after […] of the extracellular domain and which constitutes the γ-secretase substrate. The assay principle is described in Li Y M et al, PNAS 97(11), 6138-6143 (2000). Hek293 cells are mechanically disrupted and the microsomal fraction is isolated by differential centrifugation. The membranes are solubilized in detergent (0.25% CHAPSO) and incubated with the APP substrate. The Abeta peptides which are produced by γ-secretase cleavage of the substrate are detected by specific ELISA assays as described (Brockhaus M et al, Neuroreport 9(7), 1481-1486 (1998).
In general terms: An ELISA detects its analyte on a solid surface through an enzyme-linked reagent.

As usually defined, the IC50 is the concentration that inhibits the measured activity by half. As to `CCOC(C(=O)NCC(F)(F)C(F)(F)F)C(=O)N[C@@H]1C(=O)N(CCO)c2ccccc2-c2ccccc21` (single isomer, unassigned; epimer a) [Example 18, (S or R)-2-Ethoxy-N—[(S)-5-(2-hydroxy-ethyl)-6-oxo-6,7-dihydro-5H-dibenzo[b,d]azepin-7-yl]-N′-(2,2,3,3,3-pentafluoro-propyl)-malonamide, epimer A], the IC50 was determined as 7 nM.
To `CC(O)(C(=O)NCC(F)(F)C(F)(F)F)C(=O)N[C@@H]1C(=O)N(CCO)c2ccccc2-c2ccccc21` (single isomer, unassigned; epimer a) [Example 20] belongs 3 nM; to `COCCN1C(=O)[C@@H](NC(=O)C(C)(O)C(=O)NCC(F)(F)C(F)(F)F)c2ccccc2-c2ccccc21` (single isomer, unassigned; epimer a) [Example 45], 9 nM; to `CC(O)(C(=O)NCCC(F)(F)F)C(=O)N[C@@H]1C(=O)N(CCO)c2ccccc2-c2ccccc21` (single isomer, unassigned; epimer a) [Example 65, (R or S)-2-Hydroxy-N—[(S)-5-(2-hydroxy-ethyl)-6-oxo-6,7-dihydro-5H-dibenzo[b,d]azepin-7-yl]-2-methyl-N′-(3,3,3-trifluoro-propyl)-malonamide, epimer A], 39 nM.
To `CCOC(C(=O)NCC(F)(F)C(F)(F)F)C(=O)N[C@@H]1C(=O)N(CCO)c2ccccc2-c2ccccc21` (single isomer, unassigned; epimer b) [Example 19, [R or S]2-Ethoxy-N—[(S)-5-(2-hydroxy-ethyl)-6-oxo-6,7-dihydro-5H-dibenzo[b,d]azepin-7-yl]-N′-(2,2,3,3,3-pentafluoro-propyl)-malonamide, epimer B] belongs 4 nM; to `CC(O)(C(=O)NCC(F)(F)C(F)(F)F)C(=O)N[C@@H]1C(=O)N(CCO)c2ccccc2-c2ccccc21` (single isomer, unassigned; epimer b) [Example 21], 1 nM.
To `COCCN1C(=O)[C@@H](NC(=O)C(C)(O)C(=O)NCC(F)(F)C(F)(F)F)c2ccccc2-c2ccccc21` (single isomer, unassigned; epimer b) [Example 46] belongs 2 nM; to `CC(O)(C(=O)NCCC(F)(F)C(F)(F)F)C(=O)N[C@@H]1C(=O)N(CCO)c2ccccc2-c2ccccc21` (single isomer, unassigned; epimer b) [Example 62, (S or R)-2-Hydroxy-N—[(S)-5-(2-hydroxy-ethyl)-6-oxo-6,7-dihydro-5H-dibenzo[b,d]azepin-7-yl]-2-methyl-N′-(3,3,4,4,4-pentafluoro-butyl)-malonamide, epimer B], 1 nM; to `CC(O)(C(=O)NCCC(F)(F)F)C(=O)N[C@@H]1C(=O)N(CCO)c2ccccc2-c2ccccc21` (single isomer, unassigned; epimer b) [Example 66, (S or R)-2-Hydroxy-N—[(S)-5-(2-hydroxy-ethyl)-6-oxo-6,7-dihydro-5H-dibenzo[b,d]azepin-7-yl]-2-methyl-N′-(3,3,3-trifluoro-propyl)-malonamide, epimer B], 1 nM.
For the compound `COC(=O)CN1C(=O)[C@@H](NC(=O)C(C)C(=O)NCC(F)(F)C(F)(F)F)c2ccccc2-c2ccccc21` (stereo partly drawn) [Example 1, {(S)-6-Oxo-7-[2-(2,2,3,3,3-pentafluoro-propylcarbamoyl)-propionylamino]-6,7-dihydro-dibenzo[b,d]azepin-5-yl}-acetic acid methyl ester], the IC50 stood at 10 nM.
As for `CC(C(=O)NCC(F)(F)C(F)(F)F)C(=O)N[C@@H]1C(=O)N(CCOCc2ccccc2)c2ccccc2-c2ccccc21` (stereo partly drawn) [Example 2, N—[(S)-5-(2-Benzyloxy-ethyl)-6-oxo-6,7-dihydro-5H-dibenzo[b,d]azepin-7-yl]-2-methyl-N′-(2,2,3,3,3-pentafluoro-propyl)-malonamide], the figure is 6 nM; as for `CC(C(=O)NCC(F)(F)C(F)(F)F)C(=O)N[C@@H]1C(=O)N(CCO)c2ccccc2-c2ccccc21` (stereo partly drawn) [Example 3, N—[(S)-5-(2-Hydroxy-ethyl)-6-oxo-6,7-dihydro-5H-dibenzo[b,d]azepin-7-yl]-2-methyl-N ′-(2,2,3,3,3-pentafluoro-propyl)-malonamide], 1 nM.
To `CC(C)(C(=O)NCC(F)(F)C(F)(F)F)C(=O)N[C@@H]1C(=O)N(CCOCc2ccccc2)c2ccccc2-c2ccccc21` [Example 4, N—[(S)-5-(2-Benzyloxy-ethyl)-6-oxo-6,7-dihydro-5H-dibenzo[b,d]azepin-7-yl]-2,2-dimethyl-N′-(2,2,3,3,3-pentafluoro-propyl)-malonamide] belongs 9 nM; to `C[C@H](OC(=O)NCC(F)(F)C(F)(F)F)C(=O)N[C@@H]1C(=O)N(CCOCc2ccccc2)c2ccccc2-c2ccccc21` [Example 5, (2,2,3,3,3-Pentafluoro-propyl)-carbamic acid (S)-1-[(S)-5-(2-benzyloxy-ethyl)-6-oxo-6,7-dihydro-5H-dibenzo[b,d]azepin-7-ylcarbamoyl]-ethyl ester], 11 nM; to `CC(C)(C(=O)NCC(F)(F)C(F)(F)F)C(=O)N[C@@H]1C(=O)N(CCO)c2ccccc2-c2ccccc21` [Example 6, N—[(S)-5-(2-Hydroxy-ethyl)-6-oxo-6,7-dihydro-5H-dibenzo[b,d]azepin-7-yl]-2,2-dimethyl-N′-(2,2,3,3,3-pentafluoro-propyl)-malonamide], 2 nM.
As for `O=C(CC(=O)N[C@@H]1C(=O)N(CCOCc2ccccc2)c2ccccc2-c2ccccc21)NCC(F)(F)C(F)(F)F` [Example 7, N—[(S)-5-(2-Benzyloxy-ethyl)-6-oxo-6,7-dihydro-5H-dibenzo[b,d]azepin-7-yl]-N′-(2,2,3,3,3-pentafluoro-propyl)-malonamide], the figure is 22 nM; as for `C[C@H](OC(=O)NCC(F)(F)C(F)(F)F)C(=O)N[C@@H]1C(=O)N(CCO)c2ccccc2-c2ccccc21` [Example 8, (2,2,3,3,3-Pentafluoro-propyl)-carbamic acid (S)-1-[(S)-5-(2-hydroxy-ethyl)-6-oxo-6,7-dihydro-5H-dibenzo[b,d]azepin-7-ylcarbamoyl]-ethyl ester], 6 nM.
Take `O=C(CC(=O)N[C@@H]1C(=O)N(CCO)c2ccccc2-c2ccccc21)NCC(F)(F)C(F)(F)F` [Example 9, N—[(S)-5-(2-Hydroxy-ethyl)-6-oxo-6,7-dihydro-5H-dibenzo[b,d]azepin-7-yl]-N′-(2,2,3,3,3-pentafluoro-propyl)-malonamide]: the IC50 turned out to be 19 nM.
As for `COC(C(=O)NCC(F)(F)C(F)(F)F)C(=O)N[C@@H]1C(=O)N(CCOCc2ccccc2)c2ccccc2-c2ccccc21` (stereo partly drawn) [Example 10, N—[(S)-5-(2-Benzyloxy-ethyl)-6-oxo-6,7-dihydro-5H-dibenzo[b,d]azepin-7-yl]-2-methoxy-N′-(2,2,3,3,3-pentafluoro-propyl)-malonamide], the figure is 49 nM.
For `COC(C(=O)NCC(F)(F)C(F)(F)F)C(=O)N[C@@H]1C(=O)N(CCO)c2ccccc2-c2ccccc21` (stereo partly drawn) [Example 11, N—[(S)-5-(2-Hydroxy-ethyl)-6-oxo-6,7-dihydro-5H-dibenzo[b,d]azepin-7-yl]-2-methoxy-N′-(2,2,3,3,3-pentafluoro-propyl)-malonamide], the IC50 was found to be 7 nM.
As for `CC(O)(C(=O)NCC(F)(F)C(F)(F)F)C(=O)N[C@@H]1C(=O)N(CCOCc2ccccc2)c2ccccc2-c2ccccc21` (stereo partly drawn) [Example 12, N—[(S)-5-(2-Benzyloxy-ethyl)-6-oxo-6,7-dihydro-5H-dibenzo[b,d]azepin-7-yl]-2-hydroxy-2-methyl-N′-(2,2,3,3,3-pentafluoro-propyl)-malonamide], the figure is 10 nM; as for `CC(F)(C(=O)NCC(F)(F)C(F)(F)F)C(=O)N[C@@H]1C(=O)N(CCOCc2ccccc2)c2ccccc2-c2ccccc21` (stereo partly drawn) [Example 13, N—[(S)-5-(2-Benzyloxy-ethyl)-6-oxo-6,7-dihydro-5H-dibenzo[b,d]azepin-7-yl]-2-fluoro-2-methyl-N′-(2,2,3,3,3-pentafluoro-propyl)-malonamide], 10 nM.
Consider `CCOC(C(=O)NCC(F)(F)C(F)(F)F)C(=O)N[C@@H]1C(=O)N(CCOCc2ccccc2)c2ccccc2-c2ccccc21` (stereo partly drawn) [Example 14], for which the IC50 stood at 8 nM.
Take `CC(O)(C(=O)NCC(F)(F)C(F)(F)F)C(=O)N[C@@H]1C(=O)N(CCO)c2ccccc2-c2ccccc21` (stereo partly drawn) [Example 15, 2-Hydroxy-N—[(S)-5-(2-hydroxy-ethyl)-6-oxo-6,7-dihydro-5H-dibenzo[b,d]azepin-7-yl]-2-methyl-N′-(2,2,3,3,3-pentafluoro-propyl)-malonamide]: the IC50 was determined as 1 nM.

The values are drawn from patent publication US7425551B2, “Malonamide derivatives” (Hoffmann-La Roche Inc., priority 2006, dated 2008).
